Article PMC8252455, “Prediction of a clinically effective dose of THY1773, a novel V 1B receptor antagonist, based on preclinical data” (Biopharmaceutics & Drug Disposition, 2021)

Key:
[1] = molecular target: anterior pituitary V1B receptor; assay: Rat V1B RO study using a tritium labeled V1B receptor ligand; conditions: in vivo; estimated from RO study of Kamiya et al., 2020
[2] = Metabolic stability in dog liver microsomes; format: in vitro ADME; conditions: 1 μmol/L
Description: The oxidative metabolism of THY1773 was evaluated in rat and dog liver microsomes. THY1773 (1 μmol/L) was incubated with pooled liver microsomes (0.25 mg protein/ml) in sodium–potassium phosphate buffer (pH 7.4) consisting of 100 mmol/L sodium phosphate, 100 mmol/L potassium chloride, 2.5 mmol/L magnesium chloride (MgCl2), 1.5 mmol/L glucose‐6‐phosphate (G‐6‐P), and 0.18 units/ml G‐6‐P dehydrogenase (G‐6‐PDH). The reactions were initiated by the addition of β‐nicotinamide–adenine dinucleotide phosphate, oxidized form (NADP^+, 0.16 mmol/L), and incubated for 10, 20, 30, 40, 50, and 60 min. […] The intrinsic clearance (CLint) was calculated by the substrate depletion method described by Naritomi et al. (2001).
Since the CLliver was underestimated in rats and dogs from CLint in liver microsomes, the ratio of observed in vivo CLint and predicted CLint was calculated as the empirical scaling factor (ESF) for the extrapolation of CLliver from in vitro data. […] The total plasma clearance (CLtotal) was calculated by Equation (4): (4) CLtotal=QH×fu×(CLint/fu,mic)/QH+(fu/Rb)×(CLint/fu,mic)+CLrenal where QH is hepatic blood flow, fu is the free fraction in plasma, fu,mic is the fraction unbound in HLMs, Rb is blood‐to‐plasma ratio, and CLrenal is renal clearance. The fu,mic value was calculated using the Simcyp population based simulator (Version 16 R1; Simcyp Ltd.). […]

[3] = molecular target: T1, CYP2D6 (Homo sapiens, UniProt P10635); assay: Reaction phenotyping in HLMs with quinidine; format: in vitro ADME
T1 construct: THY1773 (500 nmol/L) was incubated with pooled HLMs (0.5 mg protein/ml); tissue Sekisui XenoTech, LLC; host or cells: pooled human liver microsomes (50 donors)
T1 sequence (P10635 whole entry): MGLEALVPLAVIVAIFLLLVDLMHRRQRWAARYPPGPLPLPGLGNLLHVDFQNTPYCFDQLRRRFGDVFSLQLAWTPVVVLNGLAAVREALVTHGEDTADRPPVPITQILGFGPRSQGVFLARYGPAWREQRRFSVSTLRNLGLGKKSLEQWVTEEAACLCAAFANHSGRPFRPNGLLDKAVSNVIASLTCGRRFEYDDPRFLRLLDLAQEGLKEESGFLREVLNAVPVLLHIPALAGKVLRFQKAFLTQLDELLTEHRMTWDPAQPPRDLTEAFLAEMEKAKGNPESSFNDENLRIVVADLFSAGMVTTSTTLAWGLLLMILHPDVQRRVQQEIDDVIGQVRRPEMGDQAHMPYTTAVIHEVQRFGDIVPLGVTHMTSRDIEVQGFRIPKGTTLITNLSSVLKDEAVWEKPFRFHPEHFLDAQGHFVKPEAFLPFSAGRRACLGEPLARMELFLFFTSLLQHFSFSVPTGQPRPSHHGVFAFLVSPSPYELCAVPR
Description: Reaction phenotyping using cDNA expressed recombinant human CYP isoforms, CYP1A2, CYP2B6, CYP2C8, CYP2C9, CYP2C19, CYP2D6, and CYP3A4, was conducted. Each recombinant enzyme (100 pmol/ml) in potassium phosphate buffer (pH 7.4; 100 mmol/L for CYP3A4, 50 mmol/L for the others) was preincubated with [^3H]THY1773 (10 μmol/L) at 37°C for 5 min. The reactions were initiated by the addition of NADPH‐generating system (1 mmol/L NADP^+, 5 mmol/L G‐6‐P, 1 unit/ml G‐6‐PDH, and 5 mmol/L MgCl2) and incubated for 0 or 60 min. The reactions were terminated by the addition of an equal volume of acetonitrile/methanol (9:1, vol/vol), followed by centrifugation at 1650 × g for 10 min at 4°C. An aliquot of the supernatant was subjected to an Agilent 1200 HPLC system (Agilent Technologies, Inc.) equipped with a radiochemical flow detector (Radiomatic 625TR; Perkin Elmer, Inc.), and formation of metabolites was evaluated. Reaction phenotyping study was also conducted using HLMs and selective chemical inhibitors for CYP2D6 and CYP3A, which were assumed to have significant roles in THY1773 metabolism from recombinant metabolic stability. Quinidine (1 μmol/L) for CYP2D6 and ketoconazole (1 μmol/L) for CYP3A were used as selective inhibitors. THY1773 (500 nmol/L) was incubated with pooled HLMs (0.5 mg protein/ml) in potassium phosphate buffer (100 mmol/L, pH 7.4) in the absence or presence of the selective inhibitors. The reactions were initiated by the addition of NADPH generating system (1.3 mmol/L β‐NADP^+, 3.3 mmol/L G‐6‐P, 3.3 mmol/L MgCl2, and 0.4 units/ml G‐6‐PDH), and incubated at 37°C for 30 min. The reactions were terminated by the addition of two volumes of acetonitrile/methanol (9:1, vol/vol) containing the IS. […] The CLint was calculated by the method as described previously under metabolic stability in animal liver microsomes, and the fraction metabolized (fm) was calculated by Equation (1): (1) fm=1−(CLint, with inh/CLint) where CLint is intrinsic clearance without specific inhibitor and CLint,with inh is intrinsic clearance in the presence of specific inhibitor.

[4] = Physicochemical properties (Log P, pKa); conditions: experimental data
From the text: TABLE 2 Human PBPK/RO model input parameters for THY1773 | column: Value

[5] = molecular target: T2, rat anterior pituitary membrane V1B receptor (Rattus norvegicus, UniProt P48974); assay: In vitro binding, rat anterior pituitary membrane V1B receptor; conditions: unpublished data
T2 construct: rat anterior pituitary membrane V1B receptor; from tissue; host or cells: rat anterior pituitary membranes
T2 sequence (P48974 1-425): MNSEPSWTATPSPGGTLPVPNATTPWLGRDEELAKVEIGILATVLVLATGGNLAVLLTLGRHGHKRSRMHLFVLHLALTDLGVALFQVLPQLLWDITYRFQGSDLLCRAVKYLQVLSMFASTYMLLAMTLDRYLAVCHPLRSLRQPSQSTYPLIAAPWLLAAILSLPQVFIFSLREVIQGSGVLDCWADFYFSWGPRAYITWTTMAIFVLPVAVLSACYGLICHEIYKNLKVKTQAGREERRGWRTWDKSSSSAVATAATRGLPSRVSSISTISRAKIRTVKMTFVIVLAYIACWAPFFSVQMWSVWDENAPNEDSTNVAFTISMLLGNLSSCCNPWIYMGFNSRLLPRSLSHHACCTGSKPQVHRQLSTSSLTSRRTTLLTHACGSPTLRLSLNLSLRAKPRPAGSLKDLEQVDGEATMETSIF

CC(C)NC(=O)Cn1c(-c2cccc(Cl)c2)nn(-c2ccc(CCN3CCOCC3)cc2)c1=O [THY1773]
EC50 [1]: 4.8 nM | CLint in liver microsomes [2]: 32.2 μL/min/mg protein | CLint ([3]; HLMs, with quinidine 1 μmol/L): 10.2 ± 0.509 µL/min/mg | fm,CYP2D6 ([3]; PBPK input, experimental data): 0.089 | fm (fraction metabolized) ([3]; by CYP2D6, HLMs, quinidine 1 μmol/L): 0.0893 | Log P [4]: 3.17 | pKa ([4]; monoprotic base): 6.85 | Ki [5]: 80.1 nM
